Data set [1] is described as follows: Half life in CD1 mouse blood at 1 mg/kg, iv administered as bolus dose measured up to 7 hrs by UPLC/MS/MS spectrometry analysis. It is filed as ADME, organism-based.
The nature of data set [2]: Intrinsic clearance in CD1 mouse liver microsomes assessed per gram of liver at 1 uM in presence of NADPH regenerating system measured up to 45 mins by UPLC/MS/MS analysis. To be noted: 0.75 h. It is filed as ADME.
The target in data set [3] is T1, Autotaxin (Homo sapiens, UniProt Q13822). Description: Inhibition of human recombinant ATX using Rac-1-Palmitoyl-glycero-3-phosphocholine as substrate incubated for 2 hrs using ADHP fluorogenic peroxidase substrate by horseradish peroxidase/choline oxidase-coupled assay.
Data set [4] deals with T1, Autotaxin. The experiment in a line: Inhibition of ATX in human plasma assessed as decrease in hydrolysis of lysophosphatidylcholine by measuring choline release after 24 hrs by horseradish peroxidase/choline oxidase-coupled assay. It is filed as cell-free.
Data set [5] in a line: Volume of distribution at steady state in CD1 mouse at 1 mg/kg, iv administered as bolus dose measured up to 7 hrs by UPLC/MS/MS spectrometry analysis. It is filed as ADME, organism-based. To be noted: in vivo, read-out: Vdss.
Data set [6] in a line: Blood clearance in CD1 mouse at 1 mg/kg, iv administered as bolus dose measured up to 7 hrs by UPLC/MS/MS spectrometry analysis. Type of data set: ADME, organism-based.
The nature of data set [7]: Intrinsic clearance in human liver microsomes assessed per gram of liver at 1 uM in presence of NADPH regenerating system measured up to 45 mins by UPLC/MS/MS analysis. The conditions noted are these: 0.75 h. It is filed as ADME.
A short description of data set [8]: Blood clearance in CD1 mouse at 0.5 mg/kg, iv administered as bolus dose measured up to 7 hrs by UPLC/MS/MS spectrometry analysis. Type of data set: ADME, organism-based.
The nature of data set [9]: Half life in CD1 mouse blood at 0.5 mg/kg, iv administered as bolus dose measured up to 7 hrs by UPLC/MS/MS spectrometry analysis. It is filed as ADME, organism-based.
The nature of data set [10]: Volume of distribution at steady state in CD1 mouse at 0.5 mg/kg, iv administered as bolus dose measured up to 7 hrs by UPLC/MS/MS spectrometry analysis. The conditions noted are these: in vivo, read-out: Vdss. It is filed as ADME, organism-based.
Data set [11] concerns the target T1, Autotaxin. The experiment in a line: Inhibition of human recombinant ATX using FS-3 as substrate incubated in dark for 45 mins by fluorescence assay.

The compound `C[C@H](NC(=O)CCc1nc2cccnc2n1Cc1ccc(OC(F)F)cc1)c1ccc(Cl)cc1` gave a half-life in data set [1] of 22.2 min. Also, the CLH in data set [2] was 52.8 mL/min/g. For the same compound, the values for the IC50 on Autotaxin [3] and at Autotaxin [4] were 2 nM and 44 nM, respectively. Also, the Vd in data set [5] worked out at 0.4 L/kg. The clearance in data set [6] turned out to be 62 mL/min/kg.

Regarding `C[C@H](NC(=O)CSc1nc2cccnc2n1Cc1ccc(OC(F)(F)F)cc1)c1ccc(F)cc1`, in data set [1], the half-life is 12 min. The CLH in [2] is 71.5 mL/min/g. The IC50 on Autotaxin [4] was 19 nM. Also, the Vd in data set [5] came out at 0.3 L/kg. Further, the clearance in data set [6] came out at 81 mL/min/kg.

In the case of `C[C@H](NC(=O)CCc1nc2ccncc2n1Cc1ccc(OC(F)(F)F)cc1)c1ccc(F)cc1`, the IC50 at Autotaxin [4] was determined as 32 nM.

Consider `C[C@H](NC(=O)CCc1nc2cccnc2n1Cc1ccc(F)cc1)c1ccc(F)cc1`, for which, at Autotaxin [4], the IC50 is 444 nM.

`C[C@H](NC(=O)NCc1nc2cccnc2n1Cc1ccc(F)cc1)c1ccc(F)cc1` showed a half-life in [1] of 9 min. In data set [2], the CLH worked out at 10 mL/min/g. The IC50 on Autotaxin [4] was found to be 1050 nM. Besides, the Vd in data set [5] is 0.3 L/kg. Also, in data set [6], the clearance was 67 mL/min/kg.

In data set [1], `O=C(CCc1nc2cccnc2n1Cc1ccc(F)cc1)N[C@@H](CO)c1ccc(Cl)cc1` showed a half-life of 9.6 min. Further, the CLH in [2] turned out to be 4.4 mL/min/g. For the same compound, the IC50 was 5 nM at Autotaxin [3] and 26 nM on Autotaxin [4]. In addition, in data set [5], the Vd came to 0.2 L/kg. Also, the clearance in data set [6] stood at 73 mL/min/kg.

Take `O=C(CCc1nc2cccnc2n1Cc1ccccc1)NCc1ccc(Cl)cc1`: the CLH in data set [2] was found to be 15.3 mL/min/g. Besides, on Autotaxin [4], the IC50 came out at 5800 nM.

Turning to `C[C@H](NC(=O)COc1nc2cccnc2n1Cc1ccc(F)cc1)c1ccc(F)cc1`, in data set [2], the CLH is 15.6 mL/min/g. Moreover, the IC50 at Autotaxin [4] was determined as 821 nM.

In the case of `C[C@H](NC(=O)OCc1nc2cccnc2n1Cc1ccc(F)cc1)c1ccc(F)cc1`, the CLH in data set [2] worked out at 21.8 mL/min/g. For the same compound, the IC50 on Autotaxin [3] is 366 nM; on Autotaxin [4], 3290 nM.

As for `O=C(CCc1nc2cccnc2n1Cc1ccccc1)NCc1ccc(F)cc1`, the CLH in data set [2] was 23.9 mL/min/g; in [7], 41.2 mL/min/g.

As for `COc1cccc(CNC(=O)CCc2nc3cccnc3n2Cc2ccccc2)c1`, the IC50 on Autotaxin [3] stood at 2970 nM.

On to `C[C@H](NC(=O)COc1nc2cccnc2n1Cc1ccc(OC(F)(F)F)cc1)c1ccc(Cl)cc1`, for which the clearance in data set [8] turned out to be 78 mL/min/kg. For the same compound, the CLH in [2] turned out to be 10.8 mL/min/g. Moreover, in data set [9], the half-life is 12 min. For the same compound, the IC50 at Autotaxin [4] amounted to 99 nM. Further, the Vd in data set [10] was 0.4 L/kg.

With `O=C(CCc1nc2cccnc2n1Cc1ccccc1)NCC1CCCCC1`, the CLH in data set [2] was determined as 30.8 mL/min/g; in data set [7], 17.4 mL/min/g. Also, the IC50 at Autotaxin [3] was 444 nM; at Autotaxin [4] it was 9700 nM.

As for `C[C@H](NC(=O)CCc1nc2ccncc2n1Cc1ccc(OC(F)(F)F)cc1)c1ccc(Cl)cc1`, the half-life in [1] was 8.4 min. For the same compound, the CLH in [2] was 18.1 mL/min/g. In addition, the IC50 at Autotaxin [4] was 34 nM. The Vd in data set [5] was determined as 0.2 L/kg. The compound further returned a clearance in data set [6] of 73 mL/min/kg.

`O=C(CCc1nc2cccnc2n1Cc1ccccc1)NCc1ccccc1F`: on Autotaxin [3], the IC50 was determined as 1250 nM.

As for `C[C@H](NC(=O)C[S+]([O-])c1nc2cccnc2n1Cc1ccc(OC(F)(F)F)cc1)c1ccc(F)cc1` (stereo in doubt; 26b), in [2], the CLH amounted to 19.8 mL/min/g. Also, the IC50 was 178 nM on Autotaxin [3] and 207 nM at Autotaxin [4].

For the compound `O=C(CCc1nc2cccnc2n1Cc1ccccc1)NCc1cccc(F)c1`, the IC50 at Autotaxin [3] amounted to 1250 nM.

As to `C[C@H](NC(=O)NCc1nc2cccnc2n1Cc1ccc(F)cc1)c1ccc(Cl)cc1`, at Autotaxin [4], the IC50 came to 414 nM.

`O=C(CCc1nc2cccnc2n1Cc1ccccc1)NCc1ccsc1`: the IC50 at Autotaxin [3] amounted to 2430 nM.

For the compound `COc1ccc(Cn2c(CCC(=O)N[C@@H](C)c3ccccc3)nc3cccnc32)cc1`, the clearance in [8] is 75 mL/min/kg. The results for the CLH in data set [2] and in data set [7] were 35 mL/min/g and 21.4 mL/min/g, respectively. For the same compound, in [9], the half-life is 10.2 min. The IC50 at Autotaxin [4] was 318 nM. The Vd in [10] is 0.19 L/kg.

`C[C@H](NC(=O)CCc1nc2cccnc2n1Cc1ccccc1)c1ccccc1`: the CLH was 21.4 mL/min/g in data set [2] and 62 mL/min/g in data set [7]. Moreover, the IC50 on Autotaxin [4] stood at 288 nM.

Turning to `O=C(CCc1nc2cccnc2n1Cc1ccccc1)NCc1ccccc1`, at Autotaxin [3], the IC50 was found to be 1240 nM.

Take `COc1ccc(CNC(=O)CCc2nc3cccnc3n2Cc2ccccc2)cc1`: the IC50 on Autotaxin [11] came out at 40 nM; on Autotaxin [4], 8870 nM.

As to `O=C(CCc1nc2cccnc2n1Cc1ccccc1)NCCc1ccccc1`, the IC50 on Autotaxin [3] was 3440 nM.

For `COc1ccc(Cn2c(CCC(=O)N[C@H](C)c3ccccc3)nc3cccnc32)cc1`, the IC50 at Autotaxin [4] was 8500 nM.

As to `COc1ccc(Cn2c(CCC(=O)N[C@@H](C)c3ccc(Cl)cc3)nc3cccnc32)cc1`, the IC50 at Autotaxin [4] was 215 nM.

On to `C[C@H](NC(=O)CCc1nc2cccnc2n1Cc1ccc(C(F)(F)F)cc1)c1ccc(Cl)cc1`, for which the half-life in data set [1] was 19.8 min. The CLH in data set [2] came out at 26.5 mL/min/g. In addition, at Autotaxin [4], the IC50 came to 16 nM. Further, the Vd in data set [5] worked out at 0.88 L/kg. The clearance in [6] amounted to 72 mL/min/kg.

With `C[C@H](NC(=O)C[S+]([O-])c1nc2cccnc2n1Cc1ccc(OC(F)(F)F)cc1)c1ccc(F)cc1` (stereo in doubt; 26a), the half-life in [1] was 13.2 min. Further, the CLH in data set [2] is 28.6 mL/min/g. Also, the results for the IC50 at Autotaxin [3] and at Autotaxin [4] were 10 nM and 178 nM, respectively. For the same compound, in data set [5], the Vd is 0.2 L/kg. This compound displayed a clearance in [6] of 82 mL/min/kg.

`C[C@H](NC(=O)CCc1nc2ccncc2n1Cc1ccc(F)cc1)c1ccc(F)cc1`: the IC50 at Autotaxin [4] worked out at 333 nM.

Regarding `O=C(CCc1nc2cccnc2n1Cc1ccccc1)NCc1ccccn1`, the IC50 on Autotaxin [3] came out at 11000 nM.

Take `CS(=O)(=O)c1ccc(CNC(=O)CCc2nc3cccnc3n2Cc2ccccc2)cc1`: the IC50 on Autotaxin [3] worked out at 6770 nM.

(Values after ChEMBL document CHEMBL3864162, “Discovery of potent inhibitors of the lysophospholipase autotaxin” (Bioorg Med Chem Lett, 2016).)
